Measured values published in US7923465B2, “Cannabinoid receptor ligands, pharmaceutical compositions containing them, and process for their preparation” (priority 2005, dated 2011).

Target: hCB1 (Homo sapiens, UniProt P21554)
Experiment: In vitro binding assay using hCB1-CHO membranes, [3H]-CP-55,940 displacement (Protocol II)
Set-up: expressed in transfected cells; host or cells: CHO (hCB1-CHO, generated in-house)
Method in brief: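 Incubated 1 h at 37° C, stopped by rapid vacuum filtration on PEI-precoated GF/B filters, bound radioactivity counted by liquid scintillation.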

hCB1, sequence (P21554 whole entry): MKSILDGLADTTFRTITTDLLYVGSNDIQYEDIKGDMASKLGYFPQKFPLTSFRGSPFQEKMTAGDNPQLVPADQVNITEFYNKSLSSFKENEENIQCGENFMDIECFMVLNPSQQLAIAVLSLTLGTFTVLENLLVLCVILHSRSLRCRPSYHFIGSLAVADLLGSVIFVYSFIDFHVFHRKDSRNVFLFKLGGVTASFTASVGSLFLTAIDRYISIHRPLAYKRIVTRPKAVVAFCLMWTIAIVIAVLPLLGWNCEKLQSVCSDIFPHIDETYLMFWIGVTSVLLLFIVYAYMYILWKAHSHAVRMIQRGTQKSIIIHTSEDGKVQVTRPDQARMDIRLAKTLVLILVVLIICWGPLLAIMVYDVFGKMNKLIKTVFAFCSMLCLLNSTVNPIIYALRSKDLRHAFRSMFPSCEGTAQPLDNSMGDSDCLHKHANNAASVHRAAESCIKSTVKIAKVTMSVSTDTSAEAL

`O=C(NN1CCCCC1)c1nn(-c2ccc(Cl)cc2)c2c1C1CC3CC(C1)CC2C3` [Example 140, N(7)-Piperidino-5-(4′-chlorophenyl)-5,6-diazatetracyclo[7.3.1.1^3,11.0^4,8]tetradeca-4(8)-6-diene-7-carboxamide] was tested, and the “% Displacement Protocol II” value was 57.85%.
